The source of these data is ChEMBL document CHEMBL1201862, “PubChem BioAssay data set” (2004).

SMILES strings stand for the structures.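 In this assay, cells in 96-well plates receive the compound at five concentrations for 48 hours. Endpoints are linearly interpolated between the surrounding concentrations. GI50 = concentration required for 50% inhibition of growth.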 Calls of active or inactive are those of the source. Cut-off read from the data, not from the text of the source: active = GI50 up to about 1.1 µM and inactive = higher.

Among the test systems are MDA-N; HL-60; NCI-H23; HCT-116; NCI-H226; MOLT-4; U-251; SNB-19; SNB-75; SF-539; CCRF-CEM; SK-MEL-2; HCC 2998; SK-OV-3; ACHN; HOP-92; SN12C; MDA-MB-435; LOX IMVI.
What all share (test): NCI anticancer screen, dose series, 48 h

As to `Cc1cccc2nc3n(c12)C(=O)c1ccccc1-3`, the GI50 was 43.2 µM (inactive) in the experiment with MDA-N; > 100 µM (inactive) with HL-60; > 100 µM (inactive) in the experiment with NCI-H23; > 100 µM (inactive) in the experiment on HCT-116; > 100 µM (inactive) in the experiment with NCI-H226; > 100 µM (inactive) in the experiment with MOLT-4. Besides, the GI50 in the experiment on U-251, with SNB-19, with SNB-75, with SF-539, in the experiment on CCRF-CEM and in the experiment on SK-MEL-2 was > 100 µM (inactive) in each case. Moreover, the GI50 in the experiment on HCC 2998, with SK-OV-3, in the experiment on ACHN, with HOP-92 and in the experiment with SN12C was > 100 µM (inactive) each time.

With `CC(C)c1ccc2nc3ccc(C(=O)NCCN4CCN(c5ccccc5)CC4)cn3c(=O)c2c1`, the GI50 with MDA-N is 4.6 µM (inactive); in the experiment on NCI-H23, 7.73 µM (inactive); with HCT-116, 5.66 µM (inactive); in the experiment on NCI-H226 it was > 100 µM (inactive); with MOLT-4, 1.87 µM (inactive); with U-251 it was > 100 µM (inactive). Besides, the GI50 was > 100 µM (inactive) in the experiment with SNB-19; 1.89 µM (inactive) with SNB-75; 2.24 µM (inactive) in the experiment with CCRF-CEM; 11.1 µM (inactive) in the experiment on HCC 2998; > 100 µM (inactive) in the experiment on SK-OV-3.

Turning to `Nn1c(=S)[nH]nc(/C=C/c2c(O)ccc3ccccc23)c1=O`, the GI50 in the experiment with MDA-N is 12.3 µM (inactive); with HL-60, 0.203 µM (active); in the experiment with NCI-H23, 3.24 µM (inactive); in the experiment with HCT-116 it was 3.32 µM (inactive); in the experiment on MDA-MB-435 it was 13.2 µM (inactive); in the experiment with MOLT-4, 4.29 µM (inactive). The GI50 in the experiment with U-251 is 8.22 µM (inactive); in the experiment with SNB-19 it was 21.8 µM (inactive); in the experiment on SF-539 it was 19.3 µM (inactive); with CCRF-CEM, 1.92 µM (inactive); with SK-MEL-2 it was 13.3 µM (inactive); in the experiment on HCC 2998, 7.5 µM (inactive). The results for the GI50 in the experiment with SK-OV-3, with ACHN and in the experiment with LOX IMVI were 11 µM (inactive), 4.93 µM (inactive) and 2.48 µM (inactive), respectively.

`O=C(OCc1ccccc1)N1CCCc2c(n(S(=O)(=O)c3ccccc3)c3ccccc23)C1`: the GI50 in the experiment on MDA-N, in the experiment with HL-60, in the experiment with NCI-H23, in the experiment on HCT-116, in the experiment with NCI-H226 and in the experiment on MOLT-4 was > 100 µM (inactive) throughout. The GI50 with U-251, with SNB-19, in the experiment on SF-539, in the experiment on SK-MEL-2, in the experiment with SK-OV-3 and in the experiment on ACHN was > 100 µM (inactive) throughout. Besides, the GI50 with LOX IMVI, in the experiment with HOP-92 and with SN12C was > 100 µM (inactive) in each case.

Take `Cc1cc(NN)nc2[nH]nc(N)c12`: the GI50 was > 100 µM (inactive) in the experiment on NCI-H23; > 100 µM (inactive) in the experiment with HCT-116; 93.1 µM (inactive) in the experiment on MDA-MB-435; > 100 µM (inactive) in the experiment with NCI-H226; 43.3 µM (inactive) in the experiment with MOLT-4; > 100 µM (inactive) in the experiment on U-251. In addition, the GI50 in the experiment with SNB-19, in the experiment with SNB-75, in the experiment on SF-539, in the experiment on CCRF-CEM, in the experiment with SK-MEL-2 and in the experiment with SK-OV-3 was > 100 µM (inactive) throughout. Further, the GI50 in the experiment on ACHN, in the experiment on LOX IMVI, in the experiment with HOP-92 and in the experiment with SN12C was > 100 µM (inactive) each time.

For `C=C1C[C@H](O)[C@H]2C(C[Se]c3ccccc3)C(=O)O[C@@H]2[C@H]2[C@H](C)C(O)C[C@@H]12` (some centres undefined), the GI50 was 15.7 µM (inactive) with NCI-H23; 23.1 µM (inactive) in the experiment with HCT-116; 80.2 µM (inactive) in the experiment on MDA-MB-435; 23.1 µM (inactive) with NCI-H226; 31.6 µM (inactive) in the experiment with MOLT-4; 16.4 µM (inactive) in the experiment with U-251. The GI50 in the experiment on SNB-19 is > 100 µM (inactive); in the experiment on SNB-75, 31.8 µM (inactive); with SF-539, 55.3 µM (inactive); in the experiment with CCRF-CEM, 24.8 µM (inactive); in the experiment on SK-MEL-2 it was 66.2 µM (inactive); in the experiment on SK-OV-3 it was > 100 µM (inactive). The GI50 was 27.9 µM (inactive) in the experiment on ACHN, 21.2 µM (inactive) in the experiment with LOX IMVI, 29.3 µM (inactive) with HOP-92 and 21.8 µM (inactive) with SN12C.

Turning to `Clc1c(C(Cl)(Cl)Cl)nsc1N1CCCCC1`, the GI50 with MDA-N was 31 µM (inactive); with HL-60, 16.6 µM (inactive); in the experiment on NCI-H23 it was 14 µM (inactive); in the experiment on HCT-116, 24.3 µM (inactive); in the experiment on MDA-MB-435, 20.9 µM (inactive); in the experiment on NCI-H226, 15.1 µM (inactive). The GI50 in the experiment on MOLT-4 is 15.2 µM (inactive); with U-251, 23.5 µM (inactive); in the experiment on SNB-19, 20.7 µM (inactive); in the experiment with SNB-75, 29 µM (inactive); in the experiment on SF-539, 25.3 µM (inactive); with CCRF-CEM, 16.5 µM (inactive). Further, the GI50 with HCC 2998 was 22.2 µM (inactive); in the experiment with SK-OV-3 it was 27.9 µM (inactive); in the experiment on ACHN, 29.8 µM (inactive); with LOX IMVI it was 16.2 µM (inactive); with SN12C, 28 µM (inactive).

As to `O=C(Cn1c2ccc(Br)cc2c2nc3ccccc3nc21)NNC(=O)NC1CCCCC1`, the GI50 is 44 µM (inactive) with MDA-N; 61.4 µM (inactive) in the experiment with NCI-H23; 57.3 µM (inactive) in the experiment with HCT-116; 32.7 µM (inactive) in the experiment on MDA-MB-435; 25.2 µM (inactive) in the experiment with MOLT-4; 30.1 µM (inactive) in the experiment on U-251. The GI50 in the experiment on SNB-19 was 89.1 µM (inactive); in the experiment on SNB-75, 23.2 µM (inactive); with SF-539, > 100 µM (inactive); in the experiment on CCRF-CEM it was 26.7 µM (inactive); with SK-MEL-2 it was > 100 µM (inactive); in the experiment on HCC 2998 it was > 100 µM (inactive). In addition, the GI50 is 50.7 µM (inactive) in the experiment with SK-OV-3, > 100 µM (inactive) in the experiment on ACHN, 41.4 µM (inactive) in the experiment with LOX IMVI and 52.8 µM (inactive) in the experiment with SN12C.

With `COc1cc2c(c(OC)c1)[C@H](C)N(Cc1ccccc1)C(C)C2` (some centres undefined), the GI50 is > 10 µM (inactive) in the experiment with MDA-N; 4.88 µM (inactive) with HL-60; 95.3 µM (inactive) in the experiment with NCI-H23; 14.7 µM (inactive) in the experiment with HCT-116; 16.3 µM (inactive) in the experiment on MDA-MB-435; 23.7 µM (inactive) with NCI-H226. The GI50 in the experiment on MOLT-4 is 22.7 µM (inactive); in the experiment on SNB-19 it was > 100 µM (inactive); with SNB-75, 41.1 µM (inactive); with SF-539, 16.6 µM (inactive); in the experiment on CCRF-CEM it was 36.6 µM (inactive); in the experiment with HCC 2998, 33 µM (inactive). Further, the GI50 in the experiment with SK-OV-3 was > 100 µM (inactive); in the experiment with ACHN it was 31.3 µM (inactive); with LOX IMVI it was 30.1 µM (inactive); in the experiment on SN12C, 35.2 µM (inactive).
